Results: patent EP2257297B1, “COMPOUNDS FOR USE IN THE TREATMENT OF ACNE, SEBORRHOEA AND SEBHORROEIC DERMATITIS, OR FOR REDUCING SEBUM SECRETION” (priority 2008, dated 2009)

Target: T1, human MC5R (Homo sapiens, UniProt P33032)
T1 construct: purchased Perkin Elmer RBXMC5M400UA
Test: Human MC5R radioligand binding assay ([125I] NDP-MSH displacement, hMC5R membranes)
Settings: hMC5R assay as in Example 102; compounds tested as trifluoroacetate or hydrochloride salts, or as free base
Method in brief: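 Bound ligand collected by filtration on PEI-soaked GF/A filters and counted. Data fitted to a single-site competition model with fixed Hill coefficient to give EC50.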

T1 sequence (P33032 whole entry): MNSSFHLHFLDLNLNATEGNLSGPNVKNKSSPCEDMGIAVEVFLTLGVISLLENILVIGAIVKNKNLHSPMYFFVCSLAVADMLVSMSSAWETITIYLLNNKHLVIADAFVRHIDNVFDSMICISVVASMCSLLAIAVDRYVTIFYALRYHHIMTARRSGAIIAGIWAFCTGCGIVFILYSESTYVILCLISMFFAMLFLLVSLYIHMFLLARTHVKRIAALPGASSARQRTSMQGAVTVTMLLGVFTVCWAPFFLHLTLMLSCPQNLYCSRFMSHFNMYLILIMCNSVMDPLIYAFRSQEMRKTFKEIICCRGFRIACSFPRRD

SMILES | IC50 [nM]
NC[C@@H]1N[C@H](CNC(=O)/C=C/c2ccc(Cl)cc2)CCN(CC(c2ccccc2)c2ccccc2)C1=O [Compound 275, (E)-N-(((3S,5S)-3-(aminomethyl)-1-(2,2-diphenylethyl)-2-oxo-1,4-diazepan-5-yl)methyl)-3-(4-chlorophenyl)acrylamide] | < 100
Cc1ccc(/C=C/C(=O)NC[C@@H]2CCN(CC(c3ccccc3)c3ccccc3)C(=O)[C@H](CCN)N2)cc1 [Compound 277, (E)-N-(((3S,5S)-3-(2-aminoethyl)-1-(2,2-diphenylethyl)-2-oxo-1,4-diazepan-5-yl)methyl)-3-p-tolylacrylamide] | < 100
O=C(/C=C/c1ccc(Cl)cc1)NC[C@@H]1CCN(CC(c2ccccc2)c2ccccc2)C(=O)[C@H](CN2CCCCC2)N1 [Compound 279, (E)-3-(4-chlorophenyl)-N-(((3S,5S)-1-(2,2-diphenylethyl)-2-oxo-3-(piperidin-1-ylmethyl)-1,4-diazepan-5-yl)methyl)acrylamide] | < 10
Cc1ccc(C(=O)NC[C@@H]2CCN(CC(c3ccccc3)c3ccccc3)C(=O)[C@H](CCN)N2)cc1C [Compound 281, N-(((3S,5S)-3-(2-aminoethyl)-1-(2,2-diphenylethyl)-2-oxo-1,4-diazepan-5-yl)methyl)-3,4-dimethylbenzamide] | < 1000
NCC[C@@H]1N[C@H](CNC(=O)/C=C/c2ccc(Cl)cc2)CCN(CC(c2ccccc2)c2ccccc2)C1=O [Compound 283, (E)-N-(((3S,5S)-3-(2-aminoethyl)-1-(2,2-diphenylethyl)-2-oxo-1,4-diazepan-5-yl)methyl)-3-(4-chlorophenyl)acrylamide] | < 100
Cc1ccc(C(=O)NC[C@@H]2CCN(CC(c3ccccc3)c3ccccc3)C(=O)[C@H](CCN3CCCCC3)N2)cc1C [Compound 285, N-(((3S,5S)-1-(2,2-diphenylethyl)-2-oxo-3-(2-(piperidin-1-yl)ethyl)-1,4-diazepan-5-yl)methyl)-3,4-dimethylbenzamide] | < 100
CCCC[C@@H]1N[C@H](CNC(=O)/C=C/c2ccc(Cl)cc2)CCN(CC(c2ccccc2)c2ccccc2)C1=O [Compound 297, (E)-N-(((3S,5S)-3-butyl-1-(2,2-diphenylethyl)-2-oxo-1,4-diazepan-5-yl)methyl)-3-(4-chlorophenyl)acrylamide] | < 1000

The remaining lines, values ahead:

IC50 [nM] | SMILES
< 100 | Cc1ccc(C(=O)NC[C@@H]2CCN(CC(c3ccccc3)c3ccccc3)C(=O)[C@H](CCCN3CCCCC3)N2)cc1C [Compound 270, N-(((3S,5S)-1-(2,2-diphenylethyl)-2-oxo-3-(3-(piperidin-1-yl)propyl)-1,4-diazepan-5-yl)methyl)-3,4-dimethylbenzamide]
< 100 | O=C(NC[C@@H]1CCN(CC(c2ccccc2)c2ccccc2)C(=O)[C@H](CCCN2CCCCC2)N1)c1ccc(Cl)c(Cl)c1 [Compound 271, 3,4-dichloro-N-(((3S,5S)-1-(2,2-diphenylethyl)-2-oxo-3-(3-(piperidin-1-yl)propyl)-1,4-diazepan-5-yl)methyl)benzamide]
< 100 | NCC[C@@H]1N[C@H](CNC(=O)/C=C/c2ccc(F)cc2)CCN(CC(c2ccccc2)c2ccccc2)C1=O [Compound 276, (E)-N-(((3S,5S)-3-(2-aminoethyl)-1-(2,2-diphenylethyl)-2-oxo-1,4-diazepan-5-yl)methyl)-3-(4-fluorophenyl)acrylamide]
< 1000 | NCC[C@@H]1N[C@H](CNC(=O)c2ccc(Cl)c(Cl)c2)CCN(CC(c2ccccc2)c2ccccc2)C1=O [Compound 280, N-(((3S,5S)-3-(2-aminoethyl)-1-(2,2-diphenylethyl)-2-oxo-1,4-diazepan-5-yl)methyl)-3,4-dichlorobenzamide]
< 10 | O=C(NC[C@@H]1CCN(CC(c2ccccc2)c2ccccc2)C(=O)[C@H](CCN2CCCCC2)N1)c1ccc(Cl)c(Cl)c1 [Compound 284, 3,4-dichloro-N-(((3S,5S)-1-(2,2-diphenylethyl)-2-oxo-3-(2-(piperidin-1-yl)ethyl)-1,4-diazepan-5-yl)methyl)benzamide]
